Assays:
Test in all cases: Test D pre-/postemergence plant response
Type in all cases: in vivo
[1] = tested on: dallisgrass (Paspalum dilatatum)
From the text: (§1) Seeds of plant species selected from bermudagrass (Cynodon dactylon), Surinam grass (Brachiaria decumbens), large crabgrass (Digitaria sanguinalis), green foxtail (Setaria viridis), goosegrass (Eleusine indica), johnsongrass (Sorghum halepense), kochia (Kochia scoparia), morningglory (pitted morningglory, Ipomoea lacunosa), nutsedge (purple nutsedge, Cyperus rotundus), ragweed (common ragweed, Ambrosia elatior), black mustard (Brassica nigra), guineagrass (Panicum maximum), dallisgrass (Paspalum dilatatum), barnyardgrass (Echinochloa crus-galli), sandbur (southern sandbur, Cenchrus echinatus), sowthistle (common sowthistle, Sonchus oleraceous), prickly sida (Sida spinosa), Italian ryegrass (Lolium multiflorum), purslane (common purslane, Portulaca oleracea), signalgrass (broadleaf signalgrass, Brachiaria platyphylla), groundsel (common groundsel, Senecio vulgaris), chickweed (common chickweed, Stellaria media), dayflower (Virginia (VA) dayflower, Commelina virginica), bluegrass (annual bluegrass, Poa annua), naked crabgrass (Digitaria nuda), itchgrass (Rottboellia cochinchinensis), quackgrass (Elytrigia repens), field bindweed (Convolvulus arvensis), spanishneedles (Bidens bipinnata), mallow (common mallow, Malva sylvestris) and Russian thistle (Salsola kali), were planted into a blend of loam soil and sand and treated preemergence with test chemicals formulated in a non-phytotoxic solvent mixture which included a surfactant. At the same time, plants from these weed species were treated with postemergence applications of the test chemicals formulated in the same manner. Plants ranged in height from 2 to 18 cm (1- to 4-leaf stage) for postemergence treatments.
(§2) Treated plants and controls were maintained in a greenhouse for 14 to 21 days, after which time all species were visually evaluated and compared to controls. Plant response ratings, summarized in Table D, are based on a scale of 0 to 100 where 0 is no effect and 100 is complete control. A dash (-) response means no test result.

[2] = tested on: Russian thistle (Salsola kali); conditions: Preemergence, 16 g ai/ha; scale 0 to 100, 0 no effect, 100 complete control
From the text: as §1, §2

[3] = tested on: sandbur (southern sandbur, Cenchrus echinatus)
From the text: as §1, §2

[4] = tested on: signalgrass (broadleaf signalgrass, Brachiaria platyphylla)
From the text: as §1, §2

kochia (Kochia scoparia) = tested on: kochia (Kochia scoparia)
From the text: as §1, §2

[5] = tested on: purslane (common purslane, Portulaca oleracea)
From the text: as §1, §2

[6] = tested on: bluegrass (annual bluegrass, Poa annua)
From the text: as §1, §2

[7] = tested on: morningglory (pitted morningglory, Ipomoea lacunosa)
From the text: as §1, §2

[8] = tested on: black mustard (Brassica nigra)
From the text: as §1, §2

[9] = tested on: goosegrass (Eleusine indica)
From the text: as §1, §2

[10] = tested on: dayflower (Virginia (VA) dayflower, Commelina virginica)
From the text: as §1, §2

[11] = tested on: Surinam grass (Brachiaria decumbens)
From the text: as §1, §2

[12] = tested on: large crabgrass (Digitaria sanguinalis)
From the text: as §1, §2

[13] = tested on: ragweed (common ragweed, Ambrosia elatior)
From the text: as §1, §2

[14] = tested on: chickweed (common chickweed, Stellaria media)
From the text: as §1, §2

[15] = tested on: quackgrass (Elytrigia repens)
From the text: as §1, §2

[16] = Postemergence, 16 g ai/ha, scale 0 to 100
[17] = Postemergence, 31 g ai/ha, scale 0 to 100
[18] = Postemergence, 125 g ai/ha, scale 0 to 100 (0 no effect, 100 complete control)
[19] = Postemergence, 62 g ai/ha, scale 0 to 100 (0 no effect, 100 complete control)
[20] = Preemergence, 16 g ai/ha, scale 0 to 100, 0 no effect, 100 complete control
[21] = Preemergence, 31 g ai/ha, scale 0 to 100 (0 no effect, 100 complete control)
[22] = Preemergence, 62 g ai/ha, scale 0 to 100
[23] = Preemergence, 125 g ai/ha, scale 0 to 100
[24] = Postemergence, 31 g ai/ha, scale 0 to 100 (0 no effect, 100 complete control)

SMILES: Cc1ccc(Cl)cc1-n1c(-c2ccccc2)ncc(C(=O)C2=C(O)CCCC2=O)c1=O [Compound 52]
- Plant response rating, Dallisgrass [1, 16]: 60
- Plant response rating, Dallisgrass [1, 17]: 65
- Plant response rating, Dallisgrass [1, 18]: 75
- Plant response rating, Dallisgrass [1, 19]: 70
- Plant response rating, Dallisgrass [1, 20]: 5
- Plant response rating, Dallisgrass [1, 21]: 10
- Plant response rating, Dallisgrass [1, 22]: 50
- Plant response rating, Dallisgrass [1, 23]: 95
- Plant response rating, Russian Thistle [2]: 0
- Plant response rating, Sandbur [3, 16]: 65
- Plant response rating, Sandbur [3, 17]: 65
- Plant response rating, Sandbur [3, 18]: 80
- Plant response rating, Sandbur [3, 19]: 75
- Plant response rating, Sandbur [3, 20]: 0
- Plant response rating, Sandbur [3, 21]: 0
- Plant response rating, Sandbur [3, 23]: 98
- Plant response rating, Signalgrass [4, 16]: 50
- Plant response rating, Signalgrass [4, 17]: 60
- Plant response rating, Signalgrass [4, 18]: 90
- Plant response rating, Signalgrass [4, 19]: 80
- Plant response rating, Signalgrass [4, 20]: 0
- Plant response rating, Signalgrass [4, 21]: 0
- Plant response rating, Signalgrass [4, 23]: 90
- Plant response rating, Kochia (kochia (Kochia scoparia); [16]): 0
- Plant response rating, Kochia (kochia (Kochia scoparia); [17]): 0
- Plant response rating, Kochia (kochia (Kochia scoparia); [18]): 40
- Plant response rating, Kochia (kochia (Kochia scoparia); [19]): 0
- Plant response rating, Kochia (kochia (Kochia scoparia); [21]): 25
- Plant response rating, Kochia (kochia (Kochia scoparia); [22]): 25
- Plant response rating, Kochia (kochia (Kochia scoparia); [23]): 35
- Plant response rating, Purslane [5, 16]: 65
- Plant response rating, Purslane [5, 17]: 65
- Plant response rating, Purslane [5, 18]: 75
- Plant response rating, Purslane [5, 19]: 65
- Plant response rating, Purslane [5, 20]: 0
- Plant response rating, Purslane [5, 21]: 60
- Plant response rating, Purslane [5, 22]: 90
- Plant response rating, Purslane [5, 23]: 100
- Plant response rating, Bluegrass [6, 16]: 15
- Plant response rating, Bluegrass [6, 24]: 25
- Plant response rating, Bluegrass [6, 18]: 35
- Plant response rating, Bluegrass [6, 19]: 35
- Plant response rating, Bluegrass [6, 20]: 0
- Plant response rating, Bluegrass [6, 21]: 0
- Plant response rating, Bluegrass [6, 22]: 0
- Plant response rating, Bluegrass [6, 23]: 20
- Plant response rating, Morningglory [7, 16]: 50
- Plant response rating, Morningglory [7, 17]: 65
- Plant response rating, Morningglory [7, 18]: 70
- Plant response rating, Morningglory [7, 19]: 70
- Plant response rating, Morningglory [7, 20]: 0
- Plant response rating, Morningglory [7, 21]: 0
- Plant response rating, Morningglory [7, 22]: 0
- Plant response rating, Morningglory [7, 23]: 100
- Plant response rating, Black Mustard [8, 16]: 65
- Plant response rating, Black Mustard [8, 24]: 90
- Plant response rating, Black Mustard [8, 18]: 98
- Plant response rating, Black Mustard [8, 19]: 98
- Plant response rating, Black Mustard [8, 20]: 0
- Plant response rating, Black Mustard [8, 21]: 20
- Plant response rating, Black Mustard [8, 22]: 80
- Plant response rating, Black Mustard [8, 23]: 100
- Plant response rating, Goosegrass [9, 16]: 65
- Plant response rating, Goosegrass [9, 17]: 75
- Plant response rating, Goosegrass [9, 18]: 80
- Plant response rating, Goosegrass [9, 19]: 75
- Plant response rating, Goosegrass [9, 20]: 5
- Plant response rating, Goosegrass [9, 21]: 60
- Plant response rating, Goosegrass [9, 22]: 80
- Plant response rating, Goosegrass [9, 23]: 98
- Plant response rating, Dayflower, VA [10, 16]: 5
- Plant response rating, Dayflower, VA [10, 17]: 5
- Plant response rating, Dayflower, VA [10, 18]: 60
- Plant response rating, Dayflower, VA [10, 19]: 30
- Plant response rating, Dayflower, VA [10, 20]: 0
- Plant response rating, Dayflower, VA [10, 21]: 0
- Plant response rating, Dayflower, VA [10, 22]: 0
- Plant response rating, Dayflower, VA [10, 23]: 40
- Plant response rating, Surinam Grass [11, 17]: 65
- Plant response rating, Surinam Grass [11, 18]: 90
- Plant response rating, Surinam Grass [11, 19]: 80
- Plant response rating, Surinam Grass [11, 20]: 0
- Plant response rating, Surinam Grass [11, 21]: 98
- Plant response rating, Surinam Grass [11, 23]: 98
- Plant response rating, Crabgrass, Large [12, 16]: 65
- Plant response rating, Crabgrass, Large [12, 17]: 70
- Plant response rating, Crabgrass, Large [12, 18]: 70
- Plant response rating, Crabgrass, Large [12, 19]: 70
- Plant response rating, Crabgrass, Large [12, 20]: 0
- Plant response rating, Crabgrass, Large [12, 21]: 20
- Plant response rating, Crabgrass, Large [12, 22]: 75
- Plant response rating, Crabgrass, Large [12, 23]: 98
- Plant response rating, Ragweed [13, 16]: 90
- Plant response rating, Ragweed [13, 17]: 95
- Plant response rating, Ragweed [13, 18]: 95
- Plant response rating, Ragweed [13, 19]: 95
- Plant response rating, Ragweed [13, 20]: 30
- Plant response rating, Ragweed [13, 21]: 50
- Plant response rating, Ragweed [13, 23]: 98
- Plant response rating, Chickweed [14, 16]: 75
- Plant response rating, Chickweed [14, 17]: 90
- Plant response rating, Chickweed [14, 18]: 100
- Plant response rating, Chickweed [14, 19]: 98
- Plant response rating, Chickweed [14, 23]: 95
- Plant response rating, Quackgrass [15, 16]: 5
- Plant response rating, Quackgrass [15, 17]: 10
- Plant response rating, Quackgrass [15, 18]: 20
- Plant response rating, Quackgrass [15, 19]: 15
- Plant response rating, Quackgrass [15, 20]: 0
- Plant response rating, Quackgrass [15, 21]: 0
- Plant response rating, Quackgrass [15, 23]: 20
